The target in one test is T1, aldose reductase (Bos taurus, UniProt P16116).
T1 construct: preparation of the enzyme from bovine lens; from tissue; host or cells: bovine lens
Put plainly: in vitro aldose reductase inhibition (modified Hayman and Kinoshita procedure, enzyme from bovine lens). The format is biochemical. Particulars: for inhibition at 0.04 µM: 4 × 10^-8 M; for inhibition at 1 µM / inhibition at 0.1 µM: read-out: % inhibition In Vitro. On the procedure:
Only two minor reagent changes were made: (a) the rinsing mixture was an aqueous 5% (w/v) trichloroacetic acid solution and (b) the stock solution was prepared by dissolving 25 mg of dulcitol in 100 ml of an aqueous trichloroacetic acid solution. [N.B.: For each experiment the average value found in the tissue from rats fed the glucose diet was subtracted from the individual values found in the corresponding tissue in galactose-fed rats to obtain the amount of polyol accumulated.] […] In the present case the procedure of Hayman and Kinoshita was modified in that the final chromatography step was omitted in the preparation of the enzyme from bovine lens.

A further test concerns Galactitol Accumulation. Put plainly: lowering of galactitol (dulcitol) accumulation in tissues of galactosemic rats. It is filed as in vivo, rat (Sprague-Dawley). The note with it: four days, vs untreated galactosemic rats; for % Lowering Galactitol Accumulation In Vivo, D: diaphragm. From the text: The aldose reductase inhibiting property of the compounds of this invention and the utilization of the compounds in preventing, diminishing and alleviating diabetic complications are demonstrable in experiments using galactosemic rats, see Dvornik et al., Science, 182, 1146 (1973). Such experiments are exemplified hereinbelow after the listing of the following general comments pertaining to these experiments:
(a) Four or more groups of six male rats, 50-70 g, Sprague-Dawley strain, were used. The first group, the control group, was fed a mixture of laboratory chow (rodent Laboratory Chow, Purina) and glucose at 20% (w/w %) concentration. An untreated galactosemic group was fed a similar diet in which galactose was substituted for glucose. The third group was fed a diet prepared by mixing a given amount of the test compound with the galactose containing diet. The concentration of galactose in the diet of the treated groups was the same as that for the untreated galactosemic group.
(b) After four days, the animals were killed by euthanization. Both the lens and sciatic nerve were removed, weighed and stored frozen for polyol determination.
(c) The polyol determination was performed by a modification of the procedure of M. Kraml and L. Cosyns, Clin. Biochem., 2, 373 (1969). Only two minor reagent changes were made: (a) the rinsing mixture was an aqueous 5% (w/v) trichloroacetic acid solution and (b) the stock solution was prepared by dissolving 25 mg of dulcitol in 100 ml of an aqueous trichloroacetic acid solution. [N.B.: For each experiment the average value found in the tissue from rats fed the glucose diet was subtracted from the individual values found in the corresponding tissue in galactose-fed rats to obtain the amount of polyol accumulated.] The aldose reductase inhibiting effects of the compounds of formula (I) were also tested by employing an in vitro testing procedure similar to that described by S. Hayman and J. H. Kinoshita, J. Biol. Chem., 240, 877 (1965). In the present case the procedure of Hayman and Kinoshita was modified in that the final chromatography step was omitted in the preparation of the enzyme from bovine lens.
The figures under L, N, and D represent the percentage decrease of dulcitol accumulation in the tissues of the lens, sciatic nerve, and diaphragm, respectively, for treated rats as compared to untreated rats.

This is an account of results in patent US5093496A, “Spiro-isoquinoline-pyrrolidines and analogs thereof useful as aldose reductase inhibitors” (American Home Products Corporation, priority 1991, dated 1992).

The structures appear in SMILES notation. Where two headings read alike, the source gives them in different places.

For `O=C1CC2(C(=O)N1)C(=O)N(Cc1nc3cc(C(F)(F)F)ccc3s1)C(=O)c1ccc(F)cc12` (centres unmarked) [R^1=F, R^3=CF3, 6-Fluoro-2-[[5-(trifluoromethyl)-2-benzothiazolyl]methyl]spiro-[isoquinoline-4(1H),3'-pyrrolidine]-1,2',3,5'(2H)-tetrone], at aldose reductase, the inhibition at 0.04 µM turned out to be 92% and the inhibition at 0.1 µM amounted to 94%. Also, the inhibition at 1 µM on aldose reductase (10^-6 M) is 95%. The “% Lowering Galactitol Accumulation In Vivo, D” value in the test with Galactitol Accumulation (1.0 mg/kg/day in diet) is on record as 85%.

Regarding `O=C1CC2(C(=O)N1)C(=O)N(Cc1nc3ccccc3s1)C(=O)c1ccc(F)cc12` (centres unmarked) [R^1=F, R^3=H, 2-(2-Benzothiazolylmethyl)-6-fluorospiro[isoquinoline-4(1H),3'-pyrrolidine]-1,2',3,5'(2H)-tetrone], at aldose reductase, at 0.04 µM the inhibition was 91%, the inhibition at 0.1 µM was 94% and the inhibition at 1 µM was 96%. The “% Lowering Galactitol Accumulation In Vivo, D” value in the test on Galactitol Accumulation (4.6 mg/kg/day in diet) is given as 93%.

Turning to `O=C1CC2(C(=O)N1)C(=O)N(Cc1nc3cc(C(F)(F)F)ccc3s1)C(=O)c1ccccc12` (centres unmarked) [R^1=H, R^3=CF3, 2-[[5-(Trifluoromethyl)-2-benzothiazolyl]methyl]spiro[isoquinoline-4-(1H),3'-pyrrolidine]-1,2',3,5'(2H)-tetrone], on aldose reductase, testing at 0.04 µM gave an inhibition of 90% and the inhibition at 0.1 µM came to 93%. Moreover, on aldose reductase (10^-6 M), the inhibition at 1 µM stood at 95%. Further, in the test on Galactitol Accumulation (0.5 mg/kg/day in diet), the “% Lowering Galactitol Accumulation In Vivo, D” value worked out at 94%. For the same compound, in the test with Galactitol Accumulation (1.1 mg/kg/day in diet), the “% Lowering Galactitol Accumulation In Vivo, D” value came to 89%. Moreover, in the test on Galactitol Accumulation (lens, 1.1 mg/kg/day in diet), the “% Lowering Galactitol Accumulation In Vivo, L” value was 22%.

On aldose reductase, `O=C1CC2(C(=O)N1)C(=O)N(Cc1nc3ccccc3s1)C(=O)c1ccccc12` (centres unmarked) [R^1=H, R^3=H, 2-(2-Benzothiazolylmethyl)spiro[isoquinoline-4(1H),3'-pyrrolidine)-1,2',3,5'(2H)-tetrone] came in with an inhibition at 0.04 µM of 81%. Besides, the inhibition at 1 µM at aldose reductase (10^-6 M) came out at 97%. Further, at aldose reductase (10^-7 M), the inhibition at 0.1 µM worked out at 92%.
